Test results taken from ChEMBL document CHEMBL5050841, “Inhibitors of pick1 and uses thereof” (2021).
pIC50, pKi: −log10 of the molar value. Activity calls are given as the source filed them.

Tests used:
Mus musculus [1] = test: Anti-hypersensitive activity in mouse model of spared nerve injury-induced chronic neuropathic pain assessed as increase in paw withdrawal threshold at 30 mg/kg, ip after 2 hrs by von Frey test; type: functional, organism-based
[2] = Binding affinity towards PICK1 PDZ domain (unknown origin) measured by fluorescence polarization assay; parameters: species or system Homo sapiens
Mus musculus [3] = test: Anti-hypersensitive activity in C57BL/6J mouse model of spared nerve injury-induced acute neuropathic pain assessed as increase in ipsilateral paw mechanical threshold at 10 micromol/kg, sc; type: functional, organism-based; settings: dose 10.0 µmol/kg
Mus musculus [4] = organism: Mus musculus; test: Disruption of PICK1-GluA2 interaction in lumbar spinal cord lysates of male C57BL/6 mouse assessed as reduction in GluA2 S880 phosphorylation levels at 20 uM, IT and measured by immunoblot analysis; type: subcellular
Mus musculus [5] = organism: Mus musculus; test: Binding affinity towards PICK1 in lumbar spinal cord lysates of mouse at 20 uM, IT([…]) and measured by immunoblot analysis; type: subcellular
Mus musculus [6] = organism: Mus musculus; test: Disruption of PICK1-GluA2 interaction in lumbar spinal cord lysates of male C57BL/6 mouse assessed as reduction in GluA2 surface levels at 20 uM, IT and measured by immunoblot analysis; type: subcellular
Mus musculus [7] = organism: Mus musculus; test: Disruption of PICK1-GluA2 interaction in lumbar spinal cord lysates of male C57BL/6 mouse at 20 uM, IT and measured by co-immunoprecipitation assay; type: subcellular
Mus musculus [8] = organism: Mus musculus; test: Anti-hypersensitive activity in mouse model of spared nerve injury-induced acute neuropathic pain assessed as increase in paw withdrawal threshold at 20 uM, IT by von Frey test; type: functional, organism-based
Mus musculus [9] = organism: Mus musculus; test: Anti-hypersensitive activity in mouse model of spared nerve injury-induced acute neuropathic pain assessed as reduction in GluA1 surface levels in spinal cord at 20 uM, IT by immunoblot analysis; type: functional, organism-based
[10] = Stability of compound in PBS; type: physicochemical; settings: buffer
[11] = (§1) Binding affinity towards PICK1 in rat hippocampal neurons incubated for 1 hr and measured by DID staining method; type: cell-based; settings: hippocampal neurone
Mus musculus [12] = organism: Mus musculus; test: Disruption of PICK1-GluA2 interaction in lumbar spinal cord lysates of male C57BL/6 mouse assessed as reduction in GluA1 surface levels at 20 uM, IT and measured by immunoblot analysis; type: subcellular
[13] = Inhibition of macroscopic off-rate of bound PICK1 in Tac-YFP-Dat C24 expressing human HEK293 supported cell membrane sheets; type: cell membranes
Mus musculus [14] = organism: Mus musculus; test: Anti-hypersensitive activity in mouse model of spared nerve injury-induced acute neuropathic pain assessed as reduction in GluA2 surface levels in spinal cord at 20 uM, IT by immunoblot analysis; type: functional, organism-based
[15] = Inhibition of recombinant rat SNAP-543-labeled PICK1 binding to Tac-YFP-Dat C24 expressing human HEK293 supported cell membrane sheets and measured by fluorescence polarization competition binding assay; type: cell membranes
Rattus norvegicus [16] = test: Attenuation of cocaine reinstatement in 7 day cocaine treated rat assessed as reduction in cocaine seeking behaviour at 0.3 to 3 nmol/g, iv of TAMRA labeled compound treated for 45 mins prior to administration of cocaine injection; type: functional, organism-based; settings: dose 0.3-3 nmol/g
Rattus norvegicus [17] = test: Attenuation of cocaine reinstatement in 7 day cocaine treated rat assessed as effect on inactive lever response at 0.3 to 3 nmol/g, iv of TAMRA labeled compound treated for 45 mins prior to administration of cocaine injection; type: functional, organism-based; settings: dose 0.3-3 nmol/g
Rattus norvegicus [18] = test: Attenuation of cocaine reinstatement in 7 day cocaine treated rat assessed as effect on locomotor activity at 3 nmol/g, iv of TAMRA labeled compound treated for 45 mins prior to administration of cocaine injection; type: functional, organism-based
Mus musculus [19] = organism: Mus musculus; test: Anti-hypersensitive activity in mouse model of spared nerve injury-induced chronic neuropathic pain assessed as increase in paw withdrawal threshold at 20 uM, IT after 14 days by von Frey test; type: functional, organism-based; settings: time 14.0 day
Rattus norvegicus [20] = test: Attenuation of cocaine reinstatement in 7 day cocaine treated rat assessed as reduction in sucrose seeking behaviour at 3 nmol/g, iv of TAMRA labeled compound treated for 45 mins prior to administration of cocaine injection; type: functional, organism-based
Hippocampal neurone = test: as §1; type: cell-based
[21] = Stability of compound in human plasma; type: ADME, cell-free
Mus musculus [22] = organism: Mus musculus; test: Anti-hypersensitive activity in mouse model of spared nerve injury-induced chronic neuropathic pain assessed as increase in paw withdrawal threshold at 20 uM, IT after 28 days by von Frey test; type: functional, organism-based; settings: time 28.0 day
Mus musculus [23] = organism: Mus musculus; test: Antiallodynic activity in C57BL6/N mouse model of CFA-induced inflammatory pain assessed as increase in paw withdrawal threshold at 20 uM, IT by von Frey test; type: functional, organism-based

Row | Structure (SMILES) | Activity (Mus musculus [3]) | Activity (Mus musculus [4]) | Activity (Mus musculus [5]) | Activity (Mus musculus [6]) | Activity (Mus musculus [7]) | Activity (Mus musculus [8]) | Activity (Mus musculus [9]) | Stability [10] | Activity (Mus musculus [12]) | IC50 [13] | Activity (Mus musculus [14]) | also measured
1 | NCC1(CC(=O)O)CCCCC1 |  |  |  |  |  |  |  |  |  |  |  | Activity (Mus musculus [1]): Active
2 | CC[C@H](C)[C@H](NC(=O)[C@H](CCCCN)NC(=O)CNC(=O)[C@H](CC(C)C)NC(=O)[C@H](CC(C)C)NC(=O)[C@H](Cc1ccc(O)cc1)NC(=O)CNC(=O)[C@H](C)NC(=O)[C@H](CO)NC(=O)[C@H](CC(N)=O)NC(=O)[C@H](CC(C)C)NC(=O)[C@@H](NC(=O)[C@H](Cc1c[nH]c2ccccc12)NC(=O)CN)[C@@H](C)O)C(=O)N[C@@H](CC(N)=O)C(=O)N[C@@H](CC(C)C)C(=O)N[C@@H](CCCCN)C(=O)N[C@@H](C)C(=O)N[C@@H](CC(C)C)C(=O)N[C@@H](C)C(=O)N[C@@H](C)C(=O)N[C@@H](CC(C)C)C(=O)N[C@@H](C)C(=O)N[C@@H](CCCCN)C(=O)N[C@@H](CCCCN)C(=O)N[C@H](C(=O)N[C@@H](CC(C)C)C(=O)N(CCOCCOCCC(=O)N[C@@H](Cc1cnc[nH]1)C(=O)N[C@@H](Cc1c[nH]c2ccccc12)C(=O)N[C@@H](CC(C)C)C(=O)N[C@@H](CCCCN)C(=O)N[C@H](C(=O)O)C(C)C)CCOCCOCCC(=O)N[C@@H](Cc1cnc[nH]1)C(=O)N[C@@H](Cc1c[nH]c2ccccc12)C(=O)N[C@@H](CC(C)C)C(=O)N[C@@H](CCCCN)C(=O)N[C@H](C(=O)O)C(C)C)[C@@H](C)CC | Active |  |  |  |  |  |  |  |  |  |  | pKi [2]: 8.11
3 | CC(C)C[C@H](NC(=O)[C@H](Cc1c[nH]c2ccccc12)NC(=O)[C@H](Cc1cnc[nH]1)NC(=O)[C@H](CCCNC(=N)N)NC(=O)[C@H](CCCNC(=N)N)NC(=O)[C@H](CCCNC(=N)N)NC(=O)[C@H](CCC(N)=O)NC(=O)[C@H](CCCNC(=N)N)NC(=O)[C@H](CCCNC(=N)N)NC(=O)[C@H](CCCCN)NC(=O)[C@H](CCCCN)NC(=O)[C@H](CCCNC(=N)N)NC(=O)CNC(=O)[C@@H](N)Cc1ccc(O)cc1)C(=O)N[C@@H](CCCCN)C(=O)N[C@H](C(=O)O)C(C)C |  | inactive | inactive | inactive | inactive | inactive | inactive | Unstable | inactive | Not Active | inactive | IC50 [11]: Active
4 | CC(C)C[C@H](NC(=O)[C@H](Cc1c[nH]c2ccccc12)NC(=O)[C@@H](N)Cc1cnc[nH]1)C(=O)N[C@@H](CCCCN)C(=O)N[C@H](C(=O)O)C(C)C |  |  |  |  |  |  |  |  |  | Not Active |  | 
5 | CC(C)C[C@H](NC(=O)[C@H](Cc1c[nH]c2ccccc12)NC(=O)[C@H](Cc1cnc[nH]1)NC(=O)CCOCCOCCN(CCOCCOCCC(=O)N[C@@H](Cc1cnc[nH]1)C(=O)N[C@@H](Cc1c[nH]c2ccccc12)C(=O)N[C@@H](CC(C)C)C(=O)N[C@@H](CCCCN)C(=O)N[C@H](C(=O)O)C(C)C)C(=O)[C@H](CCCNC(=N)N)NC(=O)[C@H](CCCNC(=N)N)NC(=O)[C@H](CCCNC(=N)N)NC(=O)[C@H](CCCNC(=N)N)NC(=O)[C@H](CCCNC(=N)N)NC(=O)[C@H](CCCNC(=N)N)NC(=O)[C@H](CCCCN)NC(=O)[C@H](CCCCN)NC(=O)[C@H](CCCNC(=N)N)NC(=O)CNC(=O)[C@@H](N)Cc1ccc(O)cc1)C(=O)N[C@@H](CCCCN)C(=O)N[C@H](C(=O)O)C(C)C | Active | Active | Active | inactive | Active | Active | Active | Stable | inactive |  | Active | pIC50 [15]: 8.15; Activity (Rattus norvegicus [16]): Active; Activity (Rattus norvegicus [17]): inactive; Activity (Rattus norvegicus [18]): inactive; Activity (Mus musculus [19]): Active; Activity (Rattus norvegicus [20]): inactive; Activity (Hippocampal neurone): Active; Stability [21]: Stable; pIC50 ([13]; read-out: IC50): 5.93; Activity (Mus musculus [22]): Active; Activity (Mus musculus [23]): Active
